Measured values: patent US20160109459A1, “Compositions And Methods For Heparan Sulfate As A Biomarker For Transplant Rejection” (Duke University, priority 2012, published 2016)

Columns and labels:
BALB/c DCs = assay: DC maturation: surface expression of CD40 and CD80 by FACS; type: cell-based, mouse; conditions: 24 h; HS 100 μg/mL, Pam3CSK4 2 μg/mL
Method: FIG. 3A is a graph showing WT, TLR4^−/−, or MyD88^−/− BALB/c DCs (2×10^5/well) were stimulated with LPS (100 ng/mL), HS (100 μg/mL), or Pam3CSK4 (2 μg/mL), or left unstimulated (media) for 24 hours, and measured for surface expression of co-stimulatory molecules CD40 and CD80 by FACS analysis. FIGS. 3B and 3C are graphs showing WT, MyD88^−/−, and TLR4^−/− BALB/c cultured DCs were co-cultured with media alone, LPS, HS, or Pam3CSK4 as in (A) and culture supernatants were tested for IL-6 (B) and IL-12 (C) by ELISA. Data are representative of three independent experiments; *p<0.05 compared with media alone.
To investigate how activation of DCs by HS promoted the alloreactive T cell response, an as DC maturation and production of pro-inflammatory cytokines are key initial events in triggering adaptive immune responses, the ability of HS to upregulate DC expression of costimulatory molecules, CD40 and CD80, and pro-inflammatory cytokines, IL-6 and IL-12 was tested.
(§1) Antibodies and flow cytometry: Anti-CD40 (HM40-3), anti-CD80 (16-10A1), anti-Thy1.1 (OX-7), anti-Ly5.1 (A20) anti-IFN-γ (XMG1.2), rat IgG1 isotype (R3-34), and the BrdU Flow Kit (FITC-labeled) were from BD Biosciences (San Jose, Calif., USA). Intracellular IFN-γ staining was performed as previously described. (Brennan, T. V. et al. (2008) Transplantation 85:247-55). For in vivo BrdU labeling, mice were injected with 50 μg BrdU/gm i.p. 1 hour prior to analysis. Collection of flow cytometric data was acquired using a FACSCanto (BD Biosciences), and events were analyzed using FloJo software (Tree Star, Inc., Ashland, United States).

[1] = system: purified T cells from C57BL/6 mice stimulated with bone marrow-derived BALB/c DCs; assay: Allogeneic T cell proliferation assay (3H-thymidine incorporation, IFN-γ ELISA); type: cell-based, mouse; conditions: for alloreactive T cell proliferation compared to media alone: WT BALB/c DCs + C57BL/6 T cells, 72 h then 3H-thymidine 16 h, HS 100 μg/mL, HSP70 5 μg/mL, C12-iE-DAP 1 μg/mL, L18-MDP 1 μg/mL
Method: Cells were co-cultured either alone (media) or in the presence of LPS (100 ng/mL), Pam3CSK4 (2 μg/mL), hyaluronan (HA) (100 μg/mL), sonicated-HA (sHA) (100 μg/mL), fibronectin (FN) (100 μg/mL), fibrinogen (Fbn) (100 μg/mL), heparan sulfate (HS) (100 μg/mL), HSP70 (5 μg/mL), HMGB1 (1 μg/mL), C12-iE-DAP (1 μg/mL), or L18-MDP (1 μg/mL) for 72 hours, and then pulsed ^3H-thymidine for 16 hours. Proliferation was determined by ^3H incorporation and results are expressed as cpm±SEM. Baseline alloreactivity is indicated by the dotted line; *p<0.05 compared with media alone. […] Results are representative of three independent experiments.
T cell proliferation assay: DCs were generated from bone marrow as previously described. (Yang, Y. (2004) Nat. Immunol. 5:508-15). CD3^+ T cells were isolated from B6 mice using a CD3 negative selection magnetic bead kit (Invitrogen, Carlsbad, United States). Proliferation assays were performed as previously described. (Brennan, T. V. et al. (2008) Transplantation 85:247-55).
Purified T cells from C57BL/6 mice were stimulated with bone marrow-derived DCs from BALB/c mice and their proliferation was measured by the incorporation of ^3H-thymidine. DAMPs tested included proteins—fibronectin (FN), fibrinogen (Fbn), heat shock protein 70 (HSP70), and high-mobility group protein B1 (HMGB1); and glucosaminoglycans—heparan sulfate (HS) and hyaluronan (HA). For comparison, two well-described PAMPs, lipopolysaccharide (LPS) and a synthetic tripalmitoylated lipopeptide (Pam3CSK4) that are ligands of the TLR4 homodimer and the TLR1/2 heterodimer, respectively, were tested. As nucleotide-binding domain, leucine-rich repeat containing receptors (NLRB) are another family of innate immune receptors, ligands of NLR1 (C12-iE-DAP) and NLR2 (L18-MDP) were further tested.
Next, to investigate whether HS enhanced proliferation of allogeneic T cells was due to the stimulation of TLRs on DCs or T cells, because MyD88 is a common adaptor protein involved in the signal transduction of all TLRs with the exception of TLR3^9, HS was tested against DCs or T cells that were deficient for MyD88. For this purpose, T cells from WT or MyD88^−/− C57BL/6 mice were stimulated with DCs from WT or MyD88^−/− BALB/c mice in an allogeneic proliferation assay in the presence of HS, LPS, Pam3CSK4, or media alone.
HS has been shown as a TLR4 ligand, (Johnson, G. B. et al., (2002) J. Immunol. 168:5233-39; Johnson, G. B., Brunn, G. J. & Platt, J. L. (2004) J. Immunol. 172:20-24). To determine whether the absence of TLR4 expression on stimulating DCs would reduce HS-induced alloreactive T cell proliferation equivalent to MyD88 deficiency, purified T cells from C57BL/6 mice were co-cultured with irradiated WT, TLR4^−/−, and MyD88^−/− BALB/c DCs and proliferation was measured by the incorporation of ^3H-thymidine.
Cytokine analysis: Cell culture supernatants were obtained from DC cultures or T cell proliferation assays and assayed for IL-6, IL-12 and IFN-γ by ELISA (BD Biosciences) according to the manufacturer's standard protocols. HEK 293 supernatants were tested for human IL-8 by ELISA (BioLegend, San Diego, United States).
Allogenic heart transplants were performed between C57BL/6 donors and (BALB/c x DBA.1)F1 recipients. Serum HS was measured by ELISA Immunohistologic staining for HS and CD3 was performed on heart tx tissue. Bone marrow derived dendritic cells (DCs) and purified T cells from WT-, MyD88- or TLR4-deficient mice were used in MLR assays to test for proliferation and cytokine production in response to HS. CD40 and CD80 expression on stimulated DCs was measured by FACS. T cell proliferation was determined by ^3H-thymidine incorporation and CFSE dye dilution assay. HEK293 NF-kB-luciferase reporter cell lines stably expressing CD14, MD2, and TLR4 or TLR2 were used in assays of HS activity.

[2] = system: BALB/c recipients of B10.D2 Allo-BM+LC (GVHD); assay: Murine Allo-HSCT model of GVHD (B10.D2→BALB/c); type: in vivo, mouse
Method: BALB/c recipient of B10.D2 Allo-BM+LC were treated with subcutaneous injections of the HS mimetic, PG545 (20 mg/kg in PBS), or PBS control once weekly, beginning 1 day prior to Allo-HSCT. […] FIG. 9C is a graph showing survival analysis of Allo-BM+LC+PG545 (n=10) compared to Allo-BM+LC+PBS (n=10).
as §1, with “(Brennan, T. V. et al. (2008) Transplantation 85:247-55).” left out, “States). […]” for “States).”
Allo-HSCT: For Allo-HSCT, wild-type (WT) and TLR4−/− BALB/c mice received myeloablative total-body irradiation (8.5 Gy) followed by intravenous infusion of 1×10^7 B10.D2 or BALB/c T-cell depleted bone marrow (TCD-BM). […] To induce GVHD, 5×10^6 lymph node cells from inguinal, axillary, cervical and mesenteric lymph nodes of B10.D2 or BALB/c mice were injected intravenously in addition to TCD-BM.
(§2) In another model of acute GVHD, 5×10^6 lymph node cells and 1×10^7 TCD BM from C3H.SW were transferred to C57BL/6 recipients irradiated with 10 Gy. HSCT recipients of these two GVHD models then received either intraperitoneal (i.p.) injections of 2 mg of al-antitrypsin (A1AT, Aralast™, Baxter, Deerfield, United States) resuspended in 200 μL sterile phosphate-buffered saline (PBS), subcutaneous (s.c.) injections of 20 mg/kg PG545 (Progen Pharmaceuticals Limited, Queensland, Australia) in 200 μL PBS, or 200 μL PBS alone at the indicated intervals.
In this model, lethally irradiated BALB/c mice were transplanted with 1×10^7 T cell-depleted bone marrow (TCD-BM) and 5×10^6 lymphocytes (LCs) from B10.D2 mice (Allo-BM+LC). Control mice received B10.D2 TCD-BM only (Allo-BM only) or syngeneic BALB/c TCD-BM and 5×10^6 BALB/c LCs (Syn-BM+LC).

[3] = system: C57BL/6 recipients of C3H.SW TCD-BM and LCs (GVHD); assay: Second GVHD model (C3H.SW→C57BL/6); type: in vivo, mouse; conditions: A1AT 2 mg i.p. every 3 days; p=0.032
Method: FIG. 7A is a graph showing serum HS concentrations at the indicated time points following Allo-HSCT (B10.D2→BALB/c; 1×10^7 B10.D2 TCD-BM and 5×10^6 B10.D2 LC) treated with A1AT (2 mg) or PBS every 3 days by i.p. injection, starting 1 day prior to transplantation; n=3 per data point, as determined by ELISA assay; *p<0.05. FIG. 7B is a graph showing survival and FIG. 7C is a graph showing GVHD clinical score of Allo-BM only (n=5) or Allo-BM+LC treated with A1AT (n=8) or PBS (n=5). Data is from one of two independent experiments with identical results. […] Survival of BALB/c recipients of Allo-BM+LC from B10.D2 donors (n=11) and TLR4^−/− BALB/c recipients of Allo-BM+LC from B10.D2 donors administered A1AT (n=8) or PBS (n=14) every 3 days by intraperitoneal injection, starting 1 day prior to transplantation.
as §2, with “intervals. […]” for “intervals.”

[4] = splenocytes six days after transplantation, vs PBS

Pam3CSK4 [reference compound]
upregulation of CD40 and CD80 on MyD88−/− DCs (BALB/c DCs): but not on MyD88^−/− DCs
upregulation of CD40 and CD80 on TLR4−/− DCs (BALB/c DCs): able to upregulate
upregulation of CD40 and CD80 on WT DCs (BALB/c DCs): able to upregulate

polymyxin B [PMB, reference compound]
effect on LPS-induced proliferation ([1]; PMB 10 ug/mL, LPS 100 ng/mL): significant decrease

A1AT: α1-antitrypsin (Aralast, Baxter), serum serine protease inhibitor
GVHD pathology scores (ear skin) ([2]; 3 weeks post-transplant, vs PBS): significantly lower
survival (MST) ([2]; A1AT 2 mg i.p. every 3 days, PBS controls 28.0, p<0.001): 48.5 days
GVHD clinical score curve ([2]; Allo-BM+LC recipients, 10-point scale, p=0.03): significantly lower
survival in TLR4−/− recipients compared to PBS treated TLR4−/− mice ([2]; TLR4−/− BALB/c recipients of B10.D2 Allo-BM+LC, p=0.30): no further survival benefit
serum HS levels compared to PBS ([2]; days 9 and 14 following HSCT, A1AT 2 mg i.p. every 3 days from 1 day prior to transplant): significantly lower
BrdU incorporation by donor Thy1.1+ T cells [2, 4]: significantly reduced
IFN-γ production by donor Thy1.1+ T cells [2, 4]: significantly reduced
survival compared with PBS treated group [3]: significant survival benefit

CC(C)CCC[C@@H](C)[C@H]1CC[C@H]2[C@@H]3CC[C@H]4C[C@@H](O[C@@H]5O[C@H](COS(=O)(=O)O)[C@@H](O[C@H]6O[C@H](COS(=O)(=O)O)[C@@H](O[C@H]7O[C@H](COS(=O)(=O)O)[C@@H](O[C@H]8O[C@H](COS(=O)(=O)O)[C@@H](OS(=O)(=O)O)[C@H](OS(=O)(=O)O)[C@H]8OS(=O)(=O)O)[C@H](OS(=O)(=O)O)[C@H]7OS(=O)(=O)O)[C@H](OS(=O)(=O)O)[C@H]6OS(=O)(=O)O)[C@H](OS(=O)(=O)O)[C@H]5OS(=O)(=O)O)CC[C@]4(C)[C@H]3CC[C@]12C [PG545, reference compound]
post-transplant serum HS levels compared to PBS ([2]; PG545 20 mg/kg s.c. once per week from one day prior to transplant): higher
rate of GVHD (survival analysis) ([2]; PG545 20 mg/kg s.c. weekly, PBS 29, p<0.001): 21 days
percentage of proliferating donor CD8 T cells (BrdU uptake) ([2]; post-transplant day 6, PG545 20 mg/kg s.c. weekly, PBS 12.9±2.0, n=3, p<0.05): 23.2±2.3

CCCCCCCCCCCC(=O)N[C@H](CCC(=O)NC(CCCC(N)C(=O)O)C(=O)O)C(=O)O (some centres unmarked) [C12-iE-DAP, reference compound]
alloreactive T cell proliferation compared to media alone [1]: Neither of the NLR ligands tested produced a significant increase

HSP70: heat shock protein 70 (Assay Designs), a DAMP [reference compound]
alloreactive T cell proliferation compared to media alone [1]: significantly increased
